Key:
Assay in all cases: Kinase selectivity screen
BLK = BLK (Homo sapiens, UniProt P51451); settings: read-out: % Inhibition BLK
MTOR = MTOR (Homo sapiens, UniProt P42345); settings: read-out: % Inhibition MTOR
PRAK = PRAK (Homo sapiens, UniProt Q8IW41); settings: read-out: % Inhibition PRAK
INSR = INSR (Homo sapiens, UniProt P06213); settings: read-out: % Inhibition INSR
CAMK2B = CAMK2B (Homo sapiens, UniProt Q13554); settings: read-out: % Inhibition CAMK2B
BMX = BMX (Homo sapiens, UniProt P51813); settings: read-out: % Inhibition BMX
MAPK14 = MAPK14 (Homo sapiens, UniProt Q16539); settings: read-out: % Inhibition MAPK14
FER = FER (Homo sapiens, UniProt P16591); settings: read-out: % Inhibition FER
FGFR4 = FGFR4 (Homo sapiens, UniProt P22455); settings: read-out: % Inhibition FGFR4
IGF1R = IGF1R (Homo sapiens, UniProt P08069); settings: read-out: % Inhibition IGF1R
CSNK1G1 = CSNK1G1 (Homo sapiens, UniProt Q9HCP0); settings: read-out: % Inhibition CSNK1G1
RAF1 = RAF1 (Homo sapiens, UniProt P04049); settings: read-out: % Inhibition RAF1
PTK6 = PTK6 (Homo sapiens, UniProt Q13882); settings: read-out: % Inhibition PTK6
CDK9/CCNT1 = CDK9/CCNT1 (Homo sapiens, UniProt P50750); settings: read-out: % Inhibition CDK9/CCNT1
RPS6KA1 = RPS6KA1 (Homo sapiens, UniProt Q15418); settings: read-out: % Inhibition RPS6KA1
PRKCQ = PRKCQ (Homo sapiens, UniProt Q04759); settings: read-out: % Inhibition PRKCQ
DMPK = DMPK (Homo sapiens, UniProt Q09013); settings: read-out: % Inhibition DMPK

Measured: inhibition at 1 µM

Chain of PRKCQ (Q04759 whole entry, species assumed): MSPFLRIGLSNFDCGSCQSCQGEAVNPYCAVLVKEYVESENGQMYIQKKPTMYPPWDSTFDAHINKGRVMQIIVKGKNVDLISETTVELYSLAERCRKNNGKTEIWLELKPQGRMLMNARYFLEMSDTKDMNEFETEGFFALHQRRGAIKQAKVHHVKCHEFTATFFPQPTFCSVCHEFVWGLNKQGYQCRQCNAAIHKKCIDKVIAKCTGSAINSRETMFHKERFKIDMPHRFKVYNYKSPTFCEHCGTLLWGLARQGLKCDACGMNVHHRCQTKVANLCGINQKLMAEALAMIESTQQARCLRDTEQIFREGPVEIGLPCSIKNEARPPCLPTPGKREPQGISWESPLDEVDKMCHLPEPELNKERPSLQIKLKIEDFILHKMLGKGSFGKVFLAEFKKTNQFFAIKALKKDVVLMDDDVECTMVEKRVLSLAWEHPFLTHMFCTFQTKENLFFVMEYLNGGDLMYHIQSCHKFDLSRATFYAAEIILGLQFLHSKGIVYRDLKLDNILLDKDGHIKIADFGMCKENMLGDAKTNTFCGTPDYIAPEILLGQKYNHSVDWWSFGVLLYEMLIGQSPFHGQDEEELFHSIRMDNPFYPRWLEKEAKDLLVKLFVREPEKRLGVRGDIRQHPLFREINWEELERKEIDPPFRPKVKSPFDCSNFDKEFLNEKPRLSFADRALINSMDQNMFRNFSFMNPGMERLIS
Chain of BLK (P51451 whole entry, species assumed): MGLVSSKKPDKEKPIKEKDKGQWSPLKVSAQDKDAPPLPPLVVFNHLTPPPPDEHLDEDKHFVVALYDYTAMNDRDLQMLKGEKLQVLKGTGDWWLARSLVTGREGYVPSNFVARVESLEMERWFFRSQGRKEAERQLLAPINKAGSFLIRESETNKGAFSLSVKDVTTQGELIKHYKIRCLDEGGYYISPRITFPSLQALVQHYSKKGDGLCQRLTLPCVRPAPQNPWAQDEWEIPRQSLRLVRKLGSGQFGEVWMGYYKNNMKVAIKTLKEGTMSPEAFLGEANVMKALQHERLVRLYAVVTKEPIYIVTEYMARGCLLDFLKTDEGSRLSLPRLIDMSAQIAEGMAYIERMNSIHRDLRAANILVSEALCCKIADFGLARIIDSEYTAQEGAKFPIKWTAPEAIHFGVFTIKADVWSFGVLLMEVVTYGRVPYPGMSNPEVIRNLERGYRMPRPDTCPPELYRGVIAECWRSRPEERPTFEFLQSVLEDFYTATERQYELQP
Chain of INSR (P06213 28-1382, species assumed): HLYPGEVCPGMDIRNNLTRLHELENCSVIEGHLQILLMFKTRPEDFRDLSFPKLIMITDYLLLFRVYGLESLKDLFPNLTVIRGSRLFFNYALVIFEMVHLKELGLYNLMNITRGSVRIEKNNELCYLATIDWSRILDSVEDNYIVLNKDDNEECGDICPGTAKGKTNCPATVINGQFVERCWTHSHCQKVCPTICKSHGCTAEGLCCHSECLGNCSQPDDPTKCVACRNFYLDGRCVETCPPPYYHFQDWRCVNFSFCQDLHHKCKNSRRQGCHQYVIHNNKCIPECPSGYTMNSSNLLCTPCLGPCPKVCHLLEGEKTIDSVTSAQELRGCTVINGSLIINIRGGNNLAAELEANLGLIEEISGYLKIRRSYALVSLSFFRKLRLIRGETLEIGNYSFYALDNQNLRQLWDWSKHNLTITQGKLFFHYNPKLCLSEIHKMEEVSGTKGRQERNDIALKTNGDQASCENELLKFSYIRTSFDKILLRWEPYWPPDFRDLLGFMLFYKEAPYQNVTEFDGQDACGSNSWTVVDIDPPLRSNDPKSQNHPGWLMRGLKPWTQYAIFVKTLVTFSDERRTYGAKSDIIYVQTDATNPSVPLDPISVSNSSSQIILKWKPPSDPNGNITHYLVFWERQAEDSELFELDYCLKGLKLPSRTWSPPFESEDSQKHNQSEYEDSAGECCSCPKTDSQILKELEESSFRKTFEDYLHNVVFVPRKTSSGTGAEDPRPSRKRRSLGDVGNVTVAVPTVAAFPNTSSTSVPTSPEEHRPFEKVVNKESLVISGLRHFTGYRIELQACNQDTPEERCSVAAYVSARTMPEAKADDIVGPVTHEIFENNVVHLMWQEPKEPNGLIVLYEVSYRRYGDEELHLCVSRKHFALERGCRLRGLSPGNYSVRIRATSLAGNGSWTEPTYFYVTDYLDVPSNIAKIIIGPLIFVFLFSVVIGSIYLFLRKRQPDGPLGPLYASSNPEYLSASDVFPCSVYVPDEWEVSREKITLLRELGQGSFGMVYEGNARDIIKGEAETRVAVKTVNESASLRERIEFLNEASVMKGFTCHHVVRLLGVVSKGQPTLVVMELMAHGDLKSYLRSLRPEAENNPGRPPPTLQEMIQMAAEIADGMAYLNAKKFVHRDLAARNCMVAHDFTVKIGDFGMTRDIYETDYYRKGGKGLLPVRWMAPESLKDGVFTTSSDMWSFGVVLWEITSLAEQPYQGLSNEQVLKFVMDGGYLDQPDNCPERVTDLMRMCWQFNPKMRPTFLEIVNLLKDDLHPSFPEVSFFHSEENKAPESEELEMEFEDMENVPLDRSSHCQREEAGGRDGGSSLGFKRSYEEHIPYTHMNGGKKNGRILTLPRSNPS
Chain of MAPK14 (Q16539 whole entry, species assumed): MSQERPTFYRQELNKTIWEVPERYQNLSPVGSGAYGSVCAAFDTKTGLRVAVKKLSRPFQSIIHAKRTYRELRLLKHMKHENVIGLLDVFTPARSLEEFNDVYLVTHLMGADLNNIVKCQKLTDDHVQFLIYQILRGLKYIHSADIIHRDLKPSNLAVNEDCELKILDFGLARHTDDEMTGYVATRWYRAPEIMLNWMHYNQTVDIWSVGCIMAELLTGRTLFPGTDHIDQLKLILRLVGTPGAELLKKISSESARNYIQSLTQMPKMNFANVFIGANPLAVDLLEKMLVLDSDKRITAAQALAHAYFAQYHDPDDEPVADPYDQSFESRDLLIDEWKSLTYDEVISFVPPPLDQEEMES
Chain of FER (P16591 whole entry, species assumed): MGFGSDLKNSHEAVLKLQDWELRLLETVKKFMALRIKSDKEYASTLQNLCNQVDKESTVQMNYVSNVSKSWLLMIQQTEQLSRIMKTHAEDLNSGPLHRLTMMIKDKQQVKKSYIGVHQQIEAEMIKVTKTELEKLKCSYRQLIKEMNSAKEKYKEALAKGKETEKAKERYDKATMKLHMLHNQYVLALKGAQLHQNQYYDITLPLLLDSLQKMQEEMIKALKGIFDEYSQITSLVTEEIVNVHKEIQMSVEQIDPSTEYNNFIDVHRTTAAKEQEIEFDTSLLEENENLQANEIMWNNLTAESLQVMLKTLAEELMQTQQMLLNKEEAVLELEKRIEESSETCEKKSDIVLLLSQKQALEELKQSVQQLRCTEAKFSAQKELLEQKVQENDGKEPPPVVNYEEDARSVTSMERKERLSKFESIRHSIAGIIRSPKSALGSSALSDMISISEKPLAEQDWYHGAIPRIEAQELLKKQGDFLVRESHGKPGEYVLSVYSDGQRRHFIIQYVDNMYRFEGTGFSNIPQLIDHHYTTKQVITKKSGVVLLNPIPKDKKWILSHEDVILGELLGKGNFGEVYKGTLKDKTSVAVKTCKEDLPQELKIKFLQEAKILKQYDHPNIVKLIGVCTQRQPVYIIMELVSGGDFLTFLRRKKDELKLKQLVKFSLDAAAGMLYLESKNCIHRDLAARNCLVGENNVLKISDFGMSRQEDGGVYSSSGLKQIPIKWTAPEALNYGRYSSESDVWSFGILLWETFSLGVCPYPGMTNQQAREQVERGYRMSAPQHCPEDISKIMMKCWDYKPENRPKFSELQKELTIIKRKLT
Chain of IGF1R (P08069 31-1367, species assumed): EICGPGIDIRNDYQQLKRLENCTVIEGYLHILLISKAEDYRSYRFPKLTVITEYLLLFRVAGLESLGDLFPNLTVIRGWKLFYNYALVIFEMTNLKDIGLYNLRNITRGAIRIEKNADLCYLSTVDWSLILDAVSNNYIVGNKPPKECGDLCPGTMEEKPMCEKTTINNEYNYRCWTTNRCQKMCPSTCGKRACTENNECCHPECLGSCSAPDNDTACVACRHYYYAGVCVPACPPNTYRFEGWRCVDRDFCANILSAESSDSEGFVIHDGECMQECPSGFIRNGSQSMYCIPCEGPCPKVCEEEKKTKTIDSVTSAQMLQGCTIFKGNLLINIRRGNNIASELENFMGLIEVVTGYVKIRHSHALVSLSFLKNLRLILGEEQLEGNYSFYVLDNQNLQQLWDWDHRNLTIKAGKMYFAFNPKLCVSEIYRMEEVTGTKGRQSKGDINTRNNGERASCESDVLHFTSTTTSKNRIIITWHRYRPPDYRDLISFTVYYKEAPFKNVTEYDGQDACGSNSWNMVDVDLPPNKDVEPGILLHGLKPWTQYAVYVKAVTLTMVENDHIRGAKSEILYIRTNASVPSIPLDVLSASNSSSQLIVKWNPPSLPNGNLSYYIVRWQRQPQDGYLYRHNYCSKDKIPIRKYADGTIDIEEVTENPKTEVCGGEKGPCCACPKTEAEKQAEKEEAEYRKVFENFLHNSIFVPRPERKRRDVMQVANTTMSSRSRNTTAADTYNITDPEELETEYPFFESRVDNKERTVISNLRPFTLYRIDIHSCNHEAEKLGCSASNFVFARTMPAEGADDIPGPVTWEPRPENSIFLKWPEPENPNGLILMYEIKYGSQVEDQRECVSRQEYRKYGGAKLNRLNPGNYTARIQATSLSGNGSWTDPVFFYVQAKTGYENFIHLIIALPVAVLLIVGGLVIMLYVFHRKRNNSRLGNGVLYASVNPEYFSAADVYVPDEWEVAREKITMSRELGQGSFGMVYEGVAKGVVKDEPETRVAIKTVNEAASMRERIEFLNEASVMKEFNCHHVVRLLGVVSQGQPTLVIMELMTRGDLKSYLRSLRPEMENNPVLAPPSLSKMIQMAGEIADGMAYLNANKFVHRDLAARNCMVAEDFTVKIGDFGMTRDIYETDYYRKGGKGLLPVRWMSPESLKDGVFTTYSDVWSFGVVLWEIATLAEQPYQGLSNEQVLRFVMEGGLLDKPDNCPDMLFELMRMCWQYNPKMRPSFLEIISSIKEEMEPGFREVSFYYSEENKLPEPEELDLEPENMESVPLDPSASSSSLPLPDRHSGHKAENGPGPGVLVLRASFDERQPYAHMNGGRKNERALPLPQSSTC

CC(C)Oc1cc(F)ccc1Nc1ncnc2cc(C(=O)NCCCN(C)C)n(C)c12 [Example 40, N-[3-(dimethylamino)propyl]-4-{[4-fluoro-2-(propan-2-yloxy)phenyl]amino}-5-methyl-5H-pyrrolo[3,2-d]pyrimidine-6-carboxamide]
4%: BLK
14%: CAMK2B
0%: all other assays above

Source: US10604524B2, “Pyrropyrimidine compounds as MNKs inhibitors” (LIFEARC, priority 2015, dated 2020)
